Our source for the IC50 values is US20260115187A1, “TRICYCLIC SKELETON COMPOUND AND USE THEREOF IN PREPARATION OF ANTITUMOR DRUG” (ZHONGSHAN HOSPITAL, FUDAN UNIVERSITY, priority 2024, published 2026).

For experiment [1], the system named is PLC/PRF/5 KSR2 OE (PLC cells overexpressing KSR2). As to the kind of experiment: Cell IC50 assay (CCK8 cell viability), PLC/PRF/5 KSR2 OE. The experiment is classed as cell-based. Conditions: Homo sapiens, PLC-PRF-5; hepatoma cells, 72 h incubation, CCK8; read-out: IC50 value of cell viability, PLC/PRF/5 KSR2 OE (PLC cells overexpressing KSR2). Here is the method:
(§1) (1) Cell Preparation: Hepatoma cells (PLC/PRF/5, sourced from the Chinese Academy of Sciences; MHCC97H, sourced from this research institute) in good growth condition are prepared. The cells are trypsinized, diluted, and seeded into 96-well cell culture plates. 1,000-3,000 cells are added per well. The plates are then placed in a cell culture incubator at 37° C. with 5% CO2. Drugs are added after the cells have adhered for 24 h.
(§2) (2) Drug Addition: The drugs are subjected to gradient dilution, typically setting 9 concentrations. Control groups containing no drug medium and medium containing only the drug solvent are also set up. The diluted drugs are added to the cell culture plates seeded the previous day. The plates are incubated for 72 h.
(§3) (3) CCK8 Assay for Cell Viability: CCK8 is mixed with culture medium at a 1:10 ratio. 100 μL of this mixture is added to each well of the cell culture plate. After incubating for 2-4 h, the OD values are measured using a microplate reader.
(§4) (4) Data Analysis: Based on the corresponding OD values, the data are compiled, IC50 curves are plotted, and the IC50 values are obtained.
(§5) (5) IC50 Verification: The theoretical IC50 value is identified from the IC50 curve. Drug concentrations at ½ times, 1 time, and 2 times this theoretical value are used for verification.

Experiment [2] relates to MHCC97H KSR2 OE (97H cells overexpressing KSR2). Put plainly: Cell IC50 assay (CCK8 cell viability), MHCC97H KSR2 OE. In kind it is cell-based. As to conditions: Homo sapiens, hepatoma cells, 72 h incubation, CCK8, read-out: IC50 value of cell viability, MHCC97H KSR2 OE (97H cells overexpressing KSR2). Here is the method:
as §1, §2, §3, §4, §5

Regarding `CN1CCN(C2CCN(CCCNC(=O)c3nn(C)c4c3COc3cc(OC(F)(F)F)ccc3-4)CC2)CC1` [Compound 105], the IC50 is 4 µM in experiment [1] and 3 µM in experiment [2].
Take `CN1CCN(C2CN(CCCNC(=O)c3nn(C)c4c3COc3cc(OC(F)(F)F)ccc3-4)C2)CC1` [Compound 107]: the IC50 came to 2 µM in experiment [1] and 5 µM in experiment [2].
In the case of `CN1CCN(C2CN(CCCNC(=O)c3c4c(nn3C)-c3ccc(OC(F)(F)F)cc3OC4)C2)CC1` [Compound 108], the IC50 stood at 5 µM in experiment [1] and 8 µM in experiment [2].
Taken in the same sequence, the figures for `CCN1CCN(C2CN(CCCNC(=O)c3nn(C)c4c3CSc3cc(Cl)ccc3-4)C2)CC1` [Compound 109] were 7 µM and 10 µM.
The matching figures for `CN1CCN(C2CN(C3CC(CNC(=O)c4nn(C)c5c4CSc4cc(Cl)ccc4-5)C3)C2)CC1` (centres unmarked) [Compound 110]: 4 µM and 9 µM.
Taken in the same sequence, the figures for `CCN1CCN(C2CN(C3CC(CNC(=O)c4nn(C)c5c4CSc4cc(Cl)ccc4-5)C3)C2)CC1` (centres unmarked) [Compound 111] were 6 µM and 9 µM.
For `CCN1CCN(C2CN(C3CC(CNC(=O)c4nn(C)c5c4COc4cc(OC(F)(F)F)ccc4-5)C3)C2)CC1` (centres unmarked) [Compound 112], the IC50 in experiment [1] stood at 3 µM; in experiment [2], 4 µM.
`CN1CCN(C2CCN(CCCNC(=O)c3nn(C)c4c3COc3cc(Cl)c(C#N)cc3-4)CC2)CC1` [Compound 113]: the IC50 in experiment [1] is 1 µM; in experiment [2] it was 0.8 µM.
For `CCN1CCN(C2CN(C3CC(CNC(=O)c4nn(C)c5c4COc4cc(Cl)ccc4-5)C3)C2)CC1` (centres unmarked) [Compound 114], the IC50 in experiment [1] is 4 µM; in experiment [2] it was 2 µM.
For the compound `Cc1ccc2c(c1)OCc1c-2nn(C)c1C(=O)NCCCN1CC(N2CCN(C)CC2)C1` [Compound 115], the IC50 was 43 µM in experiment [1] and 18 µM in experiment [2].
With `Cc1ccc2c(c1)OCc1c-2nn(C)c1C(=O)NCCCN1CCC(N2CCN(C)CC2)CC1` [Compound 116], the IC50 in experiment [1] was determined as 18 µM; in experiment [2] it was 7 µM.
Taken in the same sequence, the figures for `CN1CCN(C2CCN(CCCNC(=O)c3c4c(nn3C)-c3ccc(Cl)cc3OC4)CC2)CC1` [Compound 117] were 6 µM and 0.7 µM.
As for `CN1CCN(C2CN(CCCNC(=O)c3c4c(nn3C)-c3ccc(Cl)cc3OC4)C2)CC1` [Compound 118], the values for the IC50 in experiment [1] and in experiment [2] were 10 µM and 5 µM, respectively.
As for `CN1CCN(C2CN(CCCNC(=O)c3nn(C)c4c3COc3cc(Cl)c(C#N)cc3-4)C2)CC1` [Compound 119], the IC50 turned out to be 5 µM in experiment [1] and 7 µM in experiment [2].
Taken in the same sequence, the figures for `Cc1ccc2c(c1)OCc1c(C(=O)NCCCN3CCC(N4CCN(C)CC4)CC3)nn(C)c1-2` [Compound 120] were 8 µM and 10 µM.
For the compound `Cc1ccc2c(c1)OCc1c(C(=O)NCCCN3CC(N4CCN(C)CC4)C3)nn(C)c1-2` [Compound 121], the IC50 is 18 µM in experiment [1] and 20 µM in experiment [2].
The matching figures for `CN1CCN(C2CCN(CCCNC(=O)c3c4c(nn3C)-c3cc(C#N)c(Cl)cc3OC4)CC2)CC1` [Compound 122]: 4 µM and 5 µM.
In the case of `CN1CCN(C2CCN(CCCNC(=O)c3c4c(nn3C)-c3ccc(-c5cn[nH]c5)cc3OC4)CC2)CC1` [Compound 123], the IC50 is 114 µM in experiment [1] and 85 µM in experiment [2].
The matching figures for `CN1CCN(C2CCN(CCCNC(=O)c3c4c(nn3C)-c3ccc(-n5nccn5)cc3OC4)CC2)CC1` [Compound 124]: 2 µM and 5 µM.
For `CN1CCN(C2CCN(CCCNC(=O)c3n[nH]c4c3COc3cc(Cl)ccc3-4)CC2)CC1` [Compound 125], the IC50 in experiment [1] and in experiment [2] was 1 µM each time.
For the compound `CN1CCN(C2CN(CCCNC(=O)c3n[nH]c4c3COc3cc(Cl)ccc3-4)C2)CC1` [Compound 126], the figures for the IC50 in experiment [1] and in experiment [2] were 9 µM and 7 µM, respectively.
On to `CN1CCN(C2CCN(CCCNC(=O)c3nn(C)c4c3COc3cc(-c5cn[nH]c5)ccc3-4)CC2)CC1` [Compound 127], for which the IC50 came out at 8 µM in experiment [1] and 4 µM in experiment [2].
Taken in the same sequence, the figures for `CN1CCN(C2CCN(CCCNC(=O)c3n[nH]c4c3COc3cc(Cl)c(C#N)cc3-4)CC2)CC1` [Compound 128] were 4 µM and 6 µM.
`CCN1CCN(C2CCN(CCCNC(=O)c3n[nH]c4c3COc3cc(Cl)c(C#N)cc3-4)CC2)CC1` [Compound 129]: the IC50 in experiment [1] was found to be 5 µM; in experiment [2], 4 µM.
With `CN1CCN(C2CCN(CCCNC(=O)c3n[nH]c4c3COc3cc(C(F)(F)F)c(C#N)cc3-4)CC2)CC1` [Compound 130], the IC50 worked out at 10 µM in experiment [1] and 4 µM in experiment [2].
For the compound `CN1CCN(C2CN(CCCNC(=O)c3n[nH]c4c3COc3cc(C(F)(F)F)c(C#N)cc3-4)C2)CC1` [Compound 131], the IC50 is 14 µM in experiment [1] and 9 µM in experiment [2].
Regarding `CCN1CCN(C2CCN(CCCNC(=O)c3n[nH]c4c3COc3cc(C(F)(F)F)c(C#N)cc3-4)CC2)CC1` [Compound 132], the figures for the IC50 in experiment [1] and in experiment [2] were 4 µM and 1 µM, respectively.
As to `CCN1CCN(C2CCN(CCCNC(=O)c3nn(C)c4c3COc3cc(-c5cnn(C)c5)ccc3-4)CC2)CC1` [Compound 133], the values for the IC50 in experiment [1] and in experiment [2] were 2 µM and 1 µM, respectively.
